Measured values: patent US5294627A, “Directed biosynthesis of biologically active compounds” (Merck & Co., Inc., priority 1992, dated 1994)

Target: T1, Squalene synthase (Rattus norvegicus, UniProt Q02769)
T1 construct: from tissue; host or cells: liver microsomes of Charles River CD rats fed 0.1% lovastatin for 4 days
T1 sequence (Q02769 1-416): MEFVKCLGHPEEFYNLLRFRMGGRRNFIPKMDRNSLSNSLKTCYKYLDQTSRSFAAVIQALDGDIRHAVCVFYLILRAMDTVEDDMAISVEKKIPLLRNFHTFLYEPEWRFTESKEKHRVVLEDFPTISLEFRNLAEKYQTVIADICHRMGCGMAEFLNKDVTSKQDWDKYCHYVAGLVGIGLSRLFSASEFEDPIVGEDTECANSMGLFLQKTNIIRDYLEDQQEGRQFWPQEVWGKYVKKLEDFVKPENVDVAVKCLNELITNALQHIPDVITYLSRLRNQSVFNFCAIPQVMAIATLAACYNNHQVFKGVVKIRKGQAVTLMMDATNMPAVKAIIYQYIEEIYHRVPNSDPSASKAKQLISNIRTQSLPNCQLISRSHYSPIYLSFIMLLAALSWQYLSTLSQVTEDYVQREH
Assay: Squalene synthase assay (rat liver microsomes, [3H]farnesyl-pyrophosphate)
Type: biochemical
Conditions: 30° C., 20 minutes
Experimental: The intrinsic squalene synthase inhibitory activity of representative compounds of this invention was measured by the standard in vitro protocol described below:
CHARLES RIVER CD rats (120 to 150 g) were fed a diet containing 0.1% lovastatin for 4 days. The livers from these rats were homogenized in 5 volumes (mL/g) of ice cold 50 mM HEPES (4-(2-hydroxyethyl)-1-piperazine-ethanesulfonic acid), 5 mM EDTA (ethylenediaminetetraacetic acid) pH 7.5 with a Potter-Elvehjem type tissue grinder. The homogenate was centrifuged twice at 20,000× g for 15 min. at 4° C., discarding the pellet each time. The supernatant was then centrifuged at 100,000× g for 1 hr at 4° C. The resulting microsomal pellet was resuspended in a volume of the above homogenizing buffer equal to one-fifth the volume of the original homogenate. This microsomal preparation has a protein concentration of about 7 mg/mL. The microsomal suspensions were stored in aliquots at -70° C. Squalene synthase activity in these aliquots is stable for a least several months. […]
If a squalene epoxidase inhibitor (ingredient (7) above), such as Banyu's FW-439H, is not used, the assay mix is degassed under a vacuum and flushed with N2. […] Five mL of scintillation fluid was added to the heptane solution and radioactivity was determined by liquid scintillation counting.
Percent inhibition is calculated by the formula: [formula]

IC50: < 131 nM
Compound: CC(=O)OC(CCCC12OC(C(=O)O)C(O)(C(=O)O)C(C(=O)O)(O1)[C@H](OC(=O)CC/C=C/C(C)CCCc1ccccc1)[C@H]2O)C(C)Cc1cccs1 (stereo partly shown)
